Converted amounts (≈) assume the structure as drawn. “And” between values parts separate entries of the source, which are not always exact repeats. Identical values can stand only once.
How the values were obtained:
[1] = target: T1, porcine pancreatic amylase enzyme (Sus scrofa, UniProt P00690); assay: α-Amylase inhibitory activity (DNSA method); type: biochemical; settings: for IC50 / IC50 (µg/ml) α-amylase: five concentrations 1, 10, 50, 100, 500 µg/ml, acarbose positive control; for potency relative to acarbose, α-amylase: folds more potent than acarbose
T1 construct: purchased Frutarom (UK)
T1 sequence (P00690 16-511): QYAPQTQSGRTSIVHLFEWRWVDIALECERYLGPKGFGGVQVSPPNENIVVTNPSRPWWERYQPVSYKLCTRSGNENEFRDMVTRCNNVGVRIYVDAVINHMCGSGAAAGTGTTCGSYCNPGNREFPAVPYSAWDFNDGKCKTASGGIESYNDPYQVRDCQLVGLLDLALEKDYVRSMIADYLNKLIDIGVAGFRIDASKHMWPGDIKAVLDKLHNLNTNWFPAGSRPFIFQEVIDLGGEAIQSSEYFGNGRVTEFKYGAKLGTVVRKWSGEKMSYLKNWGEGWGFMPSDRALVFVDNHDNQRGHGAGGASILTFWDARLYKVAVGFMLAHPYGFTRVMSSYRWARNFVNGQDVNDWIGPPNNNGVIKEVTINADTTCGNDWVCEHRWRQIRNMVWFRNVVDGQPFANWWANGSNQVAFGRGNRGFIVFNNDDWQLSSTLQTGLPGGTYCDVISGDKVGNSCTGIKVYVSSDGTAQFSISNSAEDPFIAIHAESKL
Text: The in vitro antidiabetic activity of the synthesized compounds was investigated by assessing their α-amylase inhibitory effects. Acarbose was used as a positive control.
The following materials were purchased from Frutarom (UK): β-carotene, porcine pancreatic amylase enzyme solution, starch, dinitrosalicylic acid (DNSA), methanol, trolox, gallic acid, Na2CO3, and acarbose.
The α-amylase inhibitory assessment was based on the Wickramaratne et al. protocol with some slight alterations in some steps. The experimental part was carried out by following the 3,5-dinitrosalicylic acid (DNSA) procedure. Solutions of 20 mm sodium phosphate monobasic and sodium phosphate dibasic buffer involving 6.7 mm sodium chloride (NaH2PO4 and Na2HPO4, both including 6.7 mm NaCl, pH 6.9) were constructed by partially filling the beaker with NaH2PO4 and NaCl solution; the mixture was subjected to a magnetic stirrer. In contrast, the pH was adjusted by inserting a calibrated pH electrode in the solution. Then, the Na2HPO4 and NaCl solution was gradually added until the pH reached 6.9. A weight of 5.36 g of 20 mm Na2HPO4. 7H2O and 0.39 g of 6.7 mm NaCl were dispersed in distilled water to make 1 L and a weight of 2.76 g of NaH2PO4. […] Working solutions with concentrations of 1, 10, 50, 100 and 500 µg/ml were obtained by mixing 0.01, 0.1, 0.5, 1, and 5 ml of our synthesized molecules, respectively, and then diluting them with a buffer of Na2HPO4/NaH2PO4 (0.02 M) and NaCl (0.006 M) at pH 6.9 and then brined up to 10 ml using VF (10 ml). The acarbose was considered a reference and was established following the same previous steps used for the synthesized molecules.
A starch solution with a concentration of 1% (w/v) was prepared by suspending 1000 mg of starch in 100 ml of distilled water using V.F (100 ml), and then it was kept in a water bath at 37 °C until use, with occasional mixing to prevent starch precipitation. DNSA was used as a reactive reagent to react with reducing sugars to produce 3-amino-5- nitro salicylic acid that is highly absorbent of light at about 540 nm. It was prepared by dissolving 12 g of sodium potassium tartrate tetrahydrate in 8.0 ml of 2 M NaOH (8 g in 100 ml distill. water) then further dissolved in 20 ml of 96 mm of 3.5-dinitrosalicylic acid solution.
Then, 200 μl of the amylase solution (2 units/ml) was gently shaken with 200 μl of each of the VOs established working solutions, and then this was incubated at 37 °C for 10 min. Then 200 μl of the starch solution was added to each test tube, and there was further incubation for 3 min at 37 °C. The addition of 200 μl DNSA terminated the reaction and then boiling for 10 min at 85 to 90 °C. The mixture was then cooled to room temperature and diluted with 5 ml of distilled water, and the absorbance was recorded at 540 nm using a UV–Visible spectrophotometer. Replacement of the synthesized compounds with 200 μl of buffer was established to obtain the blank sample. In this protocol, acarbose was the positive control sample.

[2] = target: T2, porcine pancreatic lipase (Sus scrofa, UniProt P00591); assay: Anti-lipase activity (PNPB hydrolysis); type: biochemical; settings: for IC50: read-out: IC50 (µg/ml) Lipase (converted); for IC50 (µg/ml) Lipase: five dilutions 40, 100, 200, 300, 400 µg/ml, orlistat positive control
T2 sequence (P00591 1-450): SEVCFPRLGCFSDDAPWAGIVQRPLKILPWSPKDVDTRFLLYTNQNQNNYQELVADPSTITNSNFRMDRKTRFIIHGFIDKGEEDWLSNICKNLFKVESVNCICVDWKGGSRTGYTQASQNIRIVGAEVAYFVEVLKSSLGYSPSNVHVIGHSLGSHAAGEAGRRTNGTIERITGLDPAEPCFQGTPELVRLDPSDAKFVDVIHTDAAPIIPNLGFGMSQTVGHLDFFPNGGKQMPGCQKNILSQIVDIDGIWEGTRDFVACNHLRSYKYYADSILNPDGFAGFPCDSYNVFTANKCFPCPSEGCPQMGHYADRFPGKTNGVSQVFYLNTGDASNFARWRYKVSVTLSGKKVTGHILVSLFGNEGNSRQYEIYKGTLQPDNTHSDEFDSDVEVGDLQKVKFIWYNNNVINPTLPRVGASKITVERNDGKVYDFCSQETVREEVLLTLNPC
Protocol: A solution of 1 mg/ml of the synthesized compounds was mixed with 10% dimethyl sulfoxide (DMSO) and then diluted with 10% DMSO to produce five dilutions (40, 100, 200, 300, and 400 µg/ml).
A freshly prepared stock solution of pancreatic lipase enzyme was established by suspending this enzyme in 10% DMSO to form 1 mg/ml. Firstly, 25 mg of lipase was suspended in a small amount of 10% DMSO, bringing the volume up to 25 ml in V.F (25 ml), this was then put in a water bath sonicator at 37 °C for 15 min. […] The pancreatic lipase inhibition assay was conducted by adopting the procedure in the references with slight modifications. From each working solution of the synthesized compounds prepared above, 200 µl of the synthesized compounds were taken and put in a separate test tube, then 100 µl of porcine pancreatic lipase (1 mg/ml) was added to it. The resulting mixture was then adjusted to 1000 µl after addition to the 700 µl of Tris–HCl solution, and then it was incubated in a water bath at 37 °C for 15 min. After the incubation, 100 µl of PNPB (p-nitrophenyl butyrate) solution was added to each test tube. This mixture was then incubated again in a water bath at 37 °C for 30 min. A solution characterized as a negative control was constructed without the synthesized compounds, using 100 µl of porcine pancreatic lipase (1 mg/ml) solution mixed with the Tris–HCl solution up to 1 ml after the addition of 900 µl. […] The % inhibition of the synthesized compounds was calculated by using the following equation: Inhibitory lipase%=Ab-As/Ab∗100

SMILES | IC50 [1] [µM] | IC50 [2] [µM] | α-amylase inhibitory activity in words [1] | IC50 (µg/ml) α-amylase [1] | IC50 (µg/ml) Lipase [2] [µg/mL] | potency relative to acarbose, α-amylase [1]
COC(=O)Cc1cc2c(cc1C(=O)c1ccccc1Cl)OCO2 [3a] | 7.57 | 437 |  |  |  | 
COC(=O)Cc1cc2c(cc1C(=O)c1ccccc1)OCO2 [3b] |  |  | lowest activity | 61.45 ± 1.5 µg/mL (≈ 206 µM) | > 400 | 
COC(=O)Cc1cc2c(cc1C(=O)c1ccccc1I)OCO2 [3c] |  |  |  | 39.85 ± 1.3 µg/mL (≈ 93.9 µM) | > 400 | 
COC(=O)Cc1cc2c(cc1C(=O)c1cccc(I)c1)OCO2 [3d] |  |  |  | 16.36 ± 0.75 µg/mL (≈ 38.6 µM) | 118.86 ± 2.1 (≈ 280 µM) | 
COC(=O)Cc1cc2c(cc1C(=O)c1ccccc1Br)OCO2 [3e] |  |  |  | 2.57 ± 0.90 µg/mL (≈ 6.81 µM) | 78.37 ± 1.72 (≈ 208 µM) | 
COC(=O)Cc1cc2c(cc1C(=O)c1cccc(Br)c1)OCO2 [3f] |  |  |  | 9.29 ± 1.4 µg/mL (≈ 24.6 µM) | > 400 | 
O=C(O)Cc1cc2c(cc1C(=O)c1cccc(Br)c1)OCO2 [4 g] |  |  |  | 4.90 ± 2.21 µg/mL (≈ 13.5 µM) | 225.8 ± 1.43 (≈ 622 µM) | 
O=C(O)Cc1cc2c(cc1C(=O)c1ccccc1Cl)OCO2 [4a] |  |  |  | 8.88 ± 2.10 µg/mL (≈ 27.9 µM) | > 400 | 
O=C(O)Cc1cc2c(cc1C(=O)c1cccc(Cl)c1)OCO2 [4b] |  |  |  | 1.25 ± 1.01 µg/mL (≈ 3.92 µM) | > 400 | five to six folds more potent than acarbose
O=C(O)Cc1cc2c(cc1C(=O)c1ccccc1)OCO2 [4c] |  |  |  | 4.12 ± 1.63 µg/mL (≈ 14.5 µM) | 213.82 ± 2.1 (≈ 752 µM) | 
O=C(O)Cc1cc2c(cc1C(=O)c1ccccc1I)OCO2 [4d] |  |  |  | 7.95 ± 1.15 µg/mL (≈ 19.4 µM) | 187.7 ± 1.23 (≈ 458 µM) | 
O=C(O)Cc1cc2c(cc1C(=O)c1cccc(I)c1)OCO2 [4e] |  |  |  | 3.85 ± 0.98 µg/mL (≈ 9.39 µM) | 201.2 ± 2.37 (≈ 491 µM) | 
O=C(O)Cc1cc2c(cc1C(=O)c1ccccc1Br)OCO2 [4f] | 3.06 | 800 |  |  |  | five to six folds more potent than acarbose
COc1ccc(NC(=O)c2ccc3c(c2)OCO3)cc1OC [6a] |  |  |  | 8.54 µg/mL and 8.547 ± 1.55 µg/mL | 44.47 ± 2.30 (≈ 148 µM) | 
COc1cc(NC(=O)c2ccc3c(c2)OCO3)cc(OC)c1 [6b] | 14.2 | 335 |  |  |  | 
